Reference: patent US20030018027A1 (priority 2001, published 2003)

Assays:
kainate receptors = details: cited from earlier work
excessive barking [1] = test: Excessive barking of a Pomeranian with separation anxiety during 30 minutes after every one left the room; format: in vivo, dog (Pomeranian)
Description: The following experiment was performed by using an 11 years old Pomeranian (4.5 kg weight) in which a symptom of separation anxiety was confirmed.
The experimental animal was fed in a room which was equipped with an air conditioner keeping 22° C. and were provided with 200 g of canned dog food (Science Diet Maintenance, beef can, Japan Hills Colgate ) twice per day in the morning and in the evening. Water was freely provided. The animals had been habituated in the experimental cages before recording the frequency of excessive barking with a set up video camera. Excessive barking during 30 minutes after every one left the room was recorded for 2 days. The barking frequency on day 1 was 178 times and 203 times on day 2. […] The barking frequency for that recording was 0 (zero).

[2] = General symptom of animals, beagle experiment; format: in vivo, dog (beagles); details: beagles, intravenous SKF97541
Description: (§1) The experiments was performed for seven (7) days as one cycle and the data were recorded, which were repeated for 3 months (12 cycles). The data were statistically processed. The experimental dogs were fed in a room which was equipped with an air conditioner keeping 22° C. During the first 6 days, the animals were fed with 400 g of food (Science Diet Maintenance, dry, Japan Hills Colgate) at 4 o'clock every day. Water was freely provided. The animals were habituated in the experimental cages. The seventh (7th) day in each cycle, the condition was kept except that the indicated amount of SKF97541 ([…] receptor agonist) was intravenously administrated at 2 o'clock P.M. The frequency of barking during 5 minutes before feeding was recorded every day by a video camera. The ratio of the frequency of barking on the day where the animals were received SKF97541 to the mean values of the barking frequency during the first 6 days where the animals were not received SKF97541 is indicated as percentages in Table 1 and FIG. 1.

excessive barking [3] = test: Excessive barking of beagles during 5 minutes before feeding after intravenous SKF97541; format: in vivo, dog (beagles); details: mean and standard error
Description: Two ovariectomized healthy female beagles (10 kg) of 2 years old were used for the following experiments.
as §1

O=C1N=c2cc([N+](=O)[O-])c([N+](=O)[O-])cc2=NC1=O [DNQX, 6,7-dinitroquinoxaline-2,3-dione]
inhibition of running activity induced by kainate (kainate receptors; rat): inhibited

NCCCC(=O)O [GABA, γ-aminobutyric acid]
barking frequency during 30 minutes after every one left the room (excessive barking [1]; 150 mg powdered GABA mixed with canned dog food, oral, untreated days 178 and 203 times): 0

CP(=O)(O)CCCN [SKF97541, 3-aminopropyl(methyl)phosphinic acid]
barking frequency during 30 minutes after every one left the room (excessive barking [1]; SKF97541 intravenous 0.05 mg/kg body weight): did not bark | barking frequency during 30 minutes after every one left the room (excessive barking [1]; SKF97541 intravenous 0.1 mg/kg body weight): did not bark | general symptom of animals [2]: no notable point regarding to the general symptom of animals was observed | (frequency of barking on the administrated day) / (frequency of barking on non-administrated days) (excessive barking [3]; amount of administrated SKF97541 0.025 (unit not given)): 118.2 ± 0.0% | (frequency of barking on the administrated day) / (frequency of barking on non-administrated days) (excessive barking [3]; amount of administrated SKF97541 0.05 (unit not given)): 90.2 ± 6.2% | (frequency of barking on the administrated day) / (frequency of barking on non-administrated days) (excessive barking [3]; amount of administrated SKF97541 0.1 (unit not given)): 44.0 ± 1.1% | (frequency of barking on the administrated day) / (frequency of barking on non-administrated days) (excessive barking [3]; amount of administrated SKF97541 0.2 (unit not given)): 8.8 ± 8.8% | (frequency of barking on the administrated day) / (frequency of barking on non-administrated days) (excessive barking [3]; amount of administrated SKF97541 0.5 (unit not given)): 0%

C=C(C)[C@H]1CN[C@H](C(=O)O)[C@H]1CC(=O)O [kainate]
induction of running activity in rat (kainate receptors): induced
